Results as given in patent US20260216347A1, “Substituted Imidazo-Based Compounds as Ligand Directed Degraders of IRAK3” (Celgene Corporation, priority 2022, published 2026).

Target: T1, IRAK3-ePL (Homo sapiens, UniProt Q9Y616)
T1 construct: expressed in transfected cells; host or cells: 293T CRBN OE/GSPT1 G575N KI cells, lentiviral transduction, puromycin selected
Assay: IRAK3-ePL overexpressing degradation assay (InCELL Hunter luminescence, dose response)
Type: cell-based
Settings: for IRAK3 ePL degradation Ymin: lowest percentage of target protein remaining following compound treatment; for DC50: read-out: IRAK3 ePL degradation EC50
Procedure, shortened: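 Lenti-X 293T CRBN/GSPT1 G575N cells stably expressing IRAK3-ePL (5,000/well) treated overnight at 37° C with 10-point 3-fold dilutions from 10 μM, 0.2% DMSO. InCELL Hunter luminescence, background subtracted using Ataluren wells and normalized to DMSO; EC50 from four-parameter logistic fit.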

IRAK3 ePL degradation Ymin [%] | DC50 [nM] | Structure (SMILES)
14 | 0.6 | Cc1cc(-c2cnc(Nc3cnn(C4CCN(CCN5CCN(c6ccc(C7CCC(=O)NC7=O)cc6)C[C@@H]5C)CC4)c3)c3nccn23)c(F)cc1F (stereo partly drawn) [Compound 7, 3-(4-((S)-4-(2-(4-(4-((5-(2,4-difluoro-5-methylphenyl)imdazo [1,2-a]pyrazin-8-yl)amino)-1H-pyrazol-1-yl)piperidin-1-yl)ethyl)-3-methylpiperazin-1-yl)phenyl) piperidine-2,6-dione]
18 | 0.5 | Cc1cc(-c2cnc(Nc3cnn(C4CCN(CCN5CCN(c6ccc(C7CCC(=O)NC7=O)cc6)CC5)CC4)c3)c3nccn23)c(F)cc1F (centres unmarked) [Compound 8, 3-(4-(4-(2-(4-(4-((5-(2,4-difluoro-5-methylphenyl)imidazo[1,2-a]pyrazin-8-yl)amino)-1H-pyrazol-1-yl)piperidin-1-yl)ethyl)piperazin-1-yl)phenyl)piperidine-2,6-dione]
27 | 3.3 | Cc1cc(-c2cnc(Nc3cnn([C@H]4CC[C@H](CCN5CCN(c6ccc([C@@]7(C)CCC(=O)NC7=O)cc6)CC5)CC4)c3)c3nccn23)c(F)cc1F [Compound 81, (R)-3-(4-(4-(2-((trans)-4-(4-((5-(2,4-difluoro-5-methylphenyl)imidazo[1,2-a]pyrazin-8-yl)amino)-1H-pyrazol-1-yl)cyclohexyl)ethyl)piperazin-1-yl)phenyl)-3-methylpiperidine-2,6-dione]
22 | 19 | Cc1cc(-c2cnc(Nc3cnn(C4CCN(CC(=O)N5CCN(c6ccc7c(c6)CN(C6CCC(=O)NC6=O)C7=O)CC5)CC4)c3)c3nccn23)c(F)cc1F (centres unmarked) [Compound 10, 3-(5-(4-(2-(4-(4-((5-(2,4-difluoro-5-methylphenyl)imidazo[1,2-a]pyrazin-8-yl)amino)-1H-pyrazol-1-yl)piperidin-1-yl)acetyl)piperazin-1-yl)-1-oxoisoindolin-2-yl)piperidine-2,6-dione]
22 | 9.7 | Cc1cc(-c2cnc(Nc3cnn(C4CCN(CC(=O)N5CCN(c6ccc7c(c6)C(=O)N(C6CCC(=O)NC6=O)C7)CC5)CC4)c3)c3nccn23)c(F)cc1F (centres unmarked) [Compound 18, 3-(6-(4-(2-(4-(4-((5-(2,4-difluoro-5-methylphenyl)imidazo[1,2-a]pyrazin-8-yl)amino)-1H-pyrazol-1-yl)piperidin-1-yl)acetyl)piperazin-1-yl)-1-oxoisoindolin-2-yl)piperidine-2,6-dione]
14 | 0.5 | Cc1cc(-c2cnc(Nc3cnn(C4CCN(CCN5CCN(c6ccc(C7CCC(=O)NC7=O)cc6)C[C@H]5C)CC4)c3)c3nccn23)c(F)cc1F (stereo partly drawn) [Compound 9, 3-(4-((R)-4-(2-(4-(4-((5-(2,4-difluoro-5-methylphenyl)imdazo [1,2-a]pyrazin-8-yl)amino)-1H-pyrazol-1-yl)piperidin-1-yl)ethyl)-3-methylpiperazin-1-yl)phenyl) piperidine-2,6-dione]
33 | 21 | Cc1cccc(-c2cnc(Nc3cnn(C4CCN(CC(=O)N5CCN(c6ccc7c(c6)C(=O)N(C6CCC(=O)NC6=O)C7)CC5)CC4)c3)c3nccn23)c1 (centres unmarked) [Compound 16, 3-(1-oxo-6-(4-(2-(4-(4-((5-(m-tolyl)imidazo[1,2-a]pyrazin-8-yl)amino)-1H-pyrazol-1-yl)piperidin-1-yl)acetyl)piperazin-1-yl)isoindolin-2-yl)piperidine-2,6-dione]
78 | – | Cc1cc(-c2cnc(Nc3cnn(C4CCN(CCN5CCN(c6ccc([C@]7(C)CCC(=O)NC7=O)cc6)CC5)CC4)c3)c3nccn23)c(F)cc1F [Compound 76, (S)-3-(4-(4-(2-(4-(4-((5-(2,4-difluoro-5-methylphenyl)imdazo [1,2-a]pyrazin-8-yl)amino)-1H-pyrazol-1-yl)piperidin-1-yl)ethyl)piperazin-1-yl)phenyl)-3-methylpiperidine-2,6-dione]
14 | 0.51 | Cc1cc(-c2cnc(Nc3cnn(C4CCN(CC(=O)N5CCN(c6ccc(C7CCC(=O)NC7=O)cc6)CC5)CC4)c3)c3nccn23)c(F)cc1F (centres unmarked) [Compound 17, 3-(4-(4-(2-(4-(4-((5-(2,4-difluoro-5-methylphenyl)imidazo[1,2-a]pyrazin-8-yl)amino)-1H-pyrazol-1-yl)piperidin-1-yl)acetyl)piperazin-1-yl)phenyl)piperidine-2,6-dione]
28 | 26 | O=C1CCC(c2ccc(N3CCN(CCN4CCC(n5cc(Nc6ncc(-c7cccc(F)c7)n7ccnc67)cn5)CC4)CC3)cc2)C(=O)N1 (centres unmarked) [Compound 80, 3-(4-(4-(2-(4-(4-((5-(3-fluorophenyl)imidazo [1,2-a]pyrazin-8-yl)amino)-1H-pyrazol-1-yl)piperidin-1-yl)ethyl)piperazin-1-yl)phenyl) piperidine-2,6-dione]
15 | 1.1 | Cc1cc(-c2cnc(Nc3cnn([C@H]4CC[C@@H](CCN5CCN(c6ccc(C7CCC(=O)NC7=O)cc6)CC5)CC4)c3)c3nccn23)c(F)cc1F (stereo partly drawn) [Compound 14, 3-(4-(4-(2-((cis)-4-(4-((5-(2,4-difluoro-5-methylphenyl)imidazo[1,2-a]pyrazin-8-yl)amino)-1H-pyrazol-1-yl)cyclohexyl)ethyl)piperazin-1-yl)phenyl) piperidine-2,6-dione]
13 | 0.86 | Cc1cc(-c2cnc(Nc3cnn(C4CCN(CCN5[C@H](C)CN(c6ccc(C7CCC(=O)NC7=O)cc6)C[C@@H]5C)CC4)c3)c3nccn23)c(F)cc1F (stereo partly drawn) [Compound 13, 3-(4-((3S,5R)-4-(2-(4-(4-((5-(2,4-difluoro-5-methylphenyl)imdazo [1,2-a]pyrazin-8-yl)amino)-1H-pyrazol-1-yl)piperidin-1-yl)ethyl)-3,5-dimethylpiperazin-1-yl)phenyl) piperidine-2,6-dione]
24 | 7.9 | Cc1cc(-c2cnc(Nc3cnn(C4CCN(CCN5CCN(c6ccc(C7CCC(=O)NC7=O)cc6)CC5)CC4)c3)c3nccn23)ccc1F (centres unmarked) [Compound 33, 3-(4-(4-(2-(4-(4-((5-(4-fluoro-3-methylphenyl)imdazo [1,2-a]pyrazin-8-yl)amino)-1H-pyrazol-1-yl)piperidin-1-yl)ethyl)piperazin-1-yl)phenyl) piperidine-2,6-dione]
14 | 3 | Cc1cc(-c2ccc(Nc3cnn(C4CCN(CCN5CCN(c6ccc(C7CCC(=O)NC7=O)cc6)CC5)CC4)c3)c3nccn23)c(F)cc1F (centres unmarked) [Compound 12, 3-(4-(4-(2-(4-(4-((5-(2,4-difluoro-5-methylphenyl)imdazo [1,2-a]pyridin-8-yl)amino)-1H-pyrazol-1-yl)piperidin-1-yl)ethyl)piperazin-1-yl)phenyl) piperidine-2,6-dione]
22 | 4 | Cc1cc(-c2cnc(Nc3cnn([C@H]4CC[C@H](CCN5CCN(c6ccc(C7CCC(=O)NC7=O)cc6)CC5)CC4)c3)c3nccn23)c(F)cc1F (stereo partly drawn) [Compound 11, 3-(4-(4-(2-((trans)-4-(4-((5-(2,4-difluoro-5-methylphenyl)imidazo[1,2-a]pyrazin-8-yl)amino)-1H-pyrazol-1-yl)cyclohexyl)ethyl)piperazin-1-yl)phenyl)piperidine-2,6-dione]
